Consider 2 compounds from patent US5710174A, “Factor XIIIA inhibitor” (Zymo Genetics, Inc., priority 1995, dated 1998).

SMILES strings stand for the structures.

By IC50 is commonly meant the concentration at which inhibition is half-maximal.

The subject of data set [1] is clot formation. The settings on record: background; cited from earlier work.
Data set [2] has as its target T1, tissue transglutaminase (tTG) (Cavia cutleri, UniProt P08587).
T1 construct: purchased Sigma
T1 sequence (P08587 1-690): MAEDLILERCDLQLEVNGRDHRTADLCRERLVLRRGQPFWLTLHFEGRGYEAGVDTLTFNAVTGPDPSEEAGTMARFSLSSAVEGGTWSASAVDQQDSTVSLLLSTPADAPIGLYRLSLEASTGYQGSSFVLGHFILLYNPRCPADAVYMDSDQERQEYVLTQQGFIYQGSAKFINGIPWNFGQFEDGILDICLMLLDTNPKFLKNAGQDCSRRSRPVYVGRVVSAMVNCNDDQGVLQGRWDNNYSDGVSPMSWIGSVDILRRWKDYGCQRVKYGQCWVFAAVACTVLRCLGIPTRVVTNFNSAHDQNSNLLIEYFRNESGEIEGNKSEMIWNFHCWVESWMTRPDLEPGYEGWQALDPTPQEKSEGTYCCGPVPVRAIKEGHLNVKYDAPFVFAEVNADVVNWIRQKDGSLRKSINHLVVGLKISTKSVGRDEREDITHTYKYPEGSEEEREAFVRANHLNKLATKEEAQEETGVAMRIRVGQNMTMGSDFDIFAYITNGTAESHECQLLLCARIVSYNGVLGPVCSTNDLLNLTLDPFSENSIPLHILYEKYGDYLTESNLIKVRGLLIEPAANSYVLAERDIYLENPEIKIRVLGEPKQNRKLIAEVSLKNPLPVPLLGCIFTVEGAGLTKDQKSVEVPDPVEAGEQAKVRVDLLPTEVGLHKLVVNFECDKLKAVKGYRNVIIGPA
Description: tTG screening assay. The class given is biochemical. The source says: Because FXIII is a member of the tissue transglutaminase (tTG) family, all potential FXIIIa inhibitors identified in the primary FXIIIa screening assay were further screened for tTG (non-FXIII-specific) inhibitory activity. The tTG screening assay was identical to the primary FXIIIa screening assay, except that tTG (Sigma) was used instead of FXIIIa and no thrombin or PPACK was used.
The determination of IC50 values was done the same as in the primary FXIIIa screening assay, except that purified compounds were used at varying concentrations (instead of crude culture extracts). The IC50 values allow one to make comparisons of one compound to another.

Data set [3] concerns the target T2, papain (Carica papaya, UniProt P00784).
T2 construct: purchased Boehringer Mannheim
T2 sequence (P00784 134-345): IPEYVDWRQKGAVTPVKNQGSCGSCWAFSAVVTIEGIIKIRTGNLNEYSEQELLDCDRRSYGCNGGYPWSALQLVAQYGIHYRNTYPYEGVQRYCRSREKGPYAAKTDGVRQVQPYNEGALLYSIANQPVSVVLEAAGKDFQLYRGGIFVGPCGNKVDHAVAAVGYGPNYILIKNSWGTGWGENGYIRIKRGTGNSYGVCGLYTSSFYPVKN
The data set can be described thus: Papain inhibition assay. The class given is biochemical. The protocol:
For the papain inhibition assay, a buffer containing 0.1M NaPO4 and 2.5 mM EDTA at about pH 7.0 was used. An Azocoll™ solution was prepared by adding 5 mg Azocoll™ (Calbiochem; an insoluble, powdered cowhide to which a bright red dye is attached (azo-dye-bound collagen)) to the buffer while stirring. The Azocoll was prewarmed to about 37° C. 10 μl of 0.1M L-cysteine, 10 μl of 50 μg/ml papain (Boehringer Mannheim), 0.5 ml of Azocoll solution, and 50 μl of one of a series of concentrations of ZG-1400a, iodoacetamide, iodoacetic acid, cerulenin, or 50 μl of the DMSO or ethanol negative controls were added to duplicate 13×75 mm glass tubes. The ZG-1400a, iodoacetamide, and iodoacetic acid were individually prepared in 10% DMSO and tested using half-log dilutions, starting at a final assay concentration of 100 μM and diluting to 10 nM. Cerulenin was prepared in 10% ethanol and tested using half-log dilutions, starting at a final assay concentration of 100 μM and diluting to 10 nM. A negative (no inhibition) control for ZG-1400a, iodoacetamide and iodoacetic acid was 50 μl of 10% DMSO to give a final assay concentration of 1% DMSO in each control tube. A negative control for cerulenin was 50 μl of 10% ethanol to give a final assay concentration of 1% ethanol in each control tube. The test and control tubes then were incubated for 30 min at 37° C. in an agitated water bath.
After incubation, all of the tubes were centrifuged at 2000 RPM for 5 min. The supernatant was removed and its absorbance was read at 520 nm on a Beckman DU640 spectrophotometer to determine the amount of papain inhibition.

Data set [4] has as its system plasma clots. The data set can be described thus: Plasma clot lysis assay. The note with it: 100 μM. Also noted: species or system human. The protocol:
For this assay, 50 μl of one of a series of concentrations of iodoacetic acid, cerulenin, or ZG-1400a was added to 0.5 ml human citrated plasma (prepared from one blood donor) in 5 ml polypropylene tubes. The ZG-1400a and iodoacetic acid were individually prepared in 10% DMSO and tested using half-log dilutions, starting at a final assay concentration of 100 μM and diluting to 10 μM. Cerulenin was prepared in 10% ethanol and tested using half-log dilutions, starting at a final assay concentration of 100 μM and diluting to 10 μM.
Approximately 10^6 cpm ^125 I-fibrinogen (Amersham), 50 mM CaCl2 (20 mM above citrate concentration) and 5 units thrombin (bovine, Enzyme Research Labs) were added to each test and control tube. The tubes were incubated while rocking for 20 h at 37° C. Plasma clots formed in the tubes were washed three times with about 1 ml phosphate buffered saline (PBS). The plasma clots in each tube were counted after the PBS washes.
Approximately 2 ml of 50 mM Tris, pH 7.4, containing 50 mM NaCl, 28 μg plasminogen (human, Calbiochem), and 280 ng urokinase (human, Calbiochem) were added to the clots in test and control tubes. At 1, 2, and 4 h intervals, 25 μl aliquots of the samples were removed from each tube and counted.
The values shown in Table 3 represent the amount of lysis after plasma clots were formed for about 20 h and exposed to plasminogen and urokinase for about 4 h.

Data set [5] addresses T3, FXIIIa (Homo sapiens, UniProt P00488).
T3 sequence (P00488 39-732 limits assumed): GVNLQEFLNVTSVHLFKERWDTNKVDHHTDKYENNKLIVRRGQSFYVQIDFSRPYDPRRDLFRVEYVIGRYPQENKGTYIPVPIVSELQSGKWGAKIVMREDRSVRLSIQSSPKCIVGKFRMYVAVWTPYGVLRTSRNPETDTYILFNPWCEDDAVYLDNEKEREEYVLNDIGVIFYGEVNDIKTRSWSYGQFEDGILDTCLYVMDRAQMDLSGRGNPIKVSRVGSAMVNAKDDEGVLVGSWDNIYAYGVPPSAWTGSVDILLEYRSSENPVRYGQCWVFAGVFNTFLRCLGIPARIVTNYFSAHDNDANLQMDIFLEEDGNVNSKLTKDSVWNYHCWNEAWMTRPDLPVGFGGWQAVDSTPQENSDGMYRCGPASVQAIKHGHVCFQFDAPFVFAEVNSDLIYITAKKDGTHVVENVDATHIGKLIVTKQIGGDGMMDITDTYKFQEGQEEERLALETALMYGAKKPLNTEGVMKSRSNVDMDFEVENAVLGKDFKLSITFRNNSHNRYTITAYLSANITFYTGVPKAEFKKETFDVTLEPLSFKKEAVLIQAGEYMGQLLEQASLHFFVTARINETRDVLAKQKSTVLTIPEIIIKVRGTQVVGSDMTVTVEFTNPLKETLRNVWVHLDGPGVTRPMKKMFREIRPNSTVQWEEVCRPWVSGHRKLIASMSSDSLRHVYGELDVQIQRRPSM
The data set can be described thus: Primary FXIIIa screening assay (cross-linking of biotinylated fibrinogen and immobilized fibronectin). The class given is biochemical.
Description: The primary FXIIIa screening assay used a 96-well high throughput assay format. This assay assesses test sample inhibition of FXIIIa catalyzed cross-linking of biotinylated fibrinogen and immobilized fibronectin.
Test samples (possibly containing FXIIIa inhibitors) were added to 96-well plates coated with fibronectin, followed by the addition of FXIIIa, as described in the primary FXIIIa screening assay, below. Biotinylated fibrinogen was added to the wells, and streptavidin-alkaline phosphatase was used to detect biotinylated fibrinogen that had been cross-linked to fibronectin.
Purified fibronectin was diluted to 1 μg/ml in 0.1M Na2 CO3, pH 9.7, and added to control and test assay wells of 96-well plates at 100 μl/well. All wells were incubated overnight at 4° C.
After incubation, the plate wells were washed twice with 200 μl/well of wash buffer per wash to remove all fibronectin not bound to the wells. The wash buffer contained 0.135M NaCl, 2.7 mM KCl, 25 mM Tris at about pH 7.4, and 0.1% Tween 20® (Sigma Chemical Co., St. Louis, Mo.; polyoxyethylenesorbitan monolaurate). The plate wells were then blocked with 200 μl/well blocking buffer and incubated for 1-2 h at 37° C. The blocking buffer contained 0.135M NaCl, 2.7 mM KCl, 25 mM Tris at about pH 7.4, 0.1% Tween 20®, and 0.5% BSA (bovine serum albumin, Sigma fraction V; Sigma). After incubation, the plates wells were again washed with 200 μl/well of wash buffer to remove excess blocking buffer.
Briefly, fibrinogen was dialyzed against 0.1M NaHCO3, pH 8.5 (coupling buffer) at a concentration of 1 mg/ml. BNHS was dissolved in dimethylformamide at a concentration of 1.7 mg/ml, and added to fibrinogen in coupling buffer at a ratio of 30 μl BNHS to 1 ml fibrinogen. The mixture was incubated with rocking for 4 h at room temperature, dialyzed against PBS, and stored in aliquots at -80° C.
Biotinylated fibrinogen (40 μl of 20 μg/ml solution) was added to each plate well. Except in control wells (which received 10 μl of 10% DMSO alone), 10 μl of each of the 11,198 crude extracts in 10% DMSO were added to duplicate wells after the addition of biotinylated fibrinogen, resulting in a 1% final assay concentration of DMSO.
FXIIIa (recombinant human FXIIIa2 (ZymoGenetics), as described in European Patent No. 0 268 772, granted Apr. 26, 1995, and incorporated herein by reference) was diluted to 100 μg/ml in a solution of 50 mM Tris, 5 mM CaCl2 at pH 7.4 containing 1 unit/ml thrombin (bovine; Enzyme Research Labs) and incubated for 20 min at 37° C. FXIIIa then was diluted to 1 μg/ml in a cross-linking buffer consisting of the blocking buffer described above plus 20 mM CaCl2 and 75 ng/ml D-phenylalanyl-L-prolyl-L-arginine chloromethyl ketone (PPACK; Calbiochem, La Jolla, Calif.). Fifty microliters of FXIIIa in cross-linking buffer was added to each test and control well. All wells then were incubated for about 10 min at 37° C.
After incubation, the wells were washed twice with 200 μl/well of wash buffer to remove all biotinylated fibrinogen that was not cross-linked to fibronectin.

As for `O=c1oc2ccccc2c(O)c1Cc1c(O)c2ccccc2oc1=O` [dicoumarin], in data set [1], the internal bleeding entry is reported as “more prone to internal bleeding” and the toxicity entry is given as “associated with toxicity”.
As to `O=C(O)CI` [Iodoacetic Acid, iodoacetic acid], the IC50 in data set [2] was found to be 32 µM; in data set [3], 0.7 µM; in data set [5] it was 350 µM. Also, the “Papain inhibition (result in words, IC50 table)” value in data set [3] (100 μM to 10 nM, 30 min at 37° C.) is recorded as “did cause inhibition”. Further, the “susceptibility of plasma clots to lysis by plasminogen and urokinase” value in data set [4] was “significantly more susceptible to lysis”. For the same compound, the “% Plasma Clot lysis” value in data set [4] (clots formed about 20 h, plasminogen and urokinase about 4 h) stood at 23%.
